By EC50 is commonly meant the concentration needed to bring the measured effect to its halfway point. The low end stands for greater potency, the high end for weaker potency.

The text below walks through data of ChEMBL document CHEMBL4402577, “Discovery and Optimization of a Compound Series Active against Trypanosoma cruzi, the Causative Agent of Chagas Disease” (J Med Chem, 2020).

Values after ≈ are worked out from the molar mass of the structure shown. A value given as a limit tells only on which side of the number the result lay.

The subject of the first data set is Trypanosoma cruzi. As to the kind of experiment: Antitrypanosomal activity against Trypanosoma cruzi Tulahuen strain C2C4 trypomastigotes infected in rat L6 cells incubated for 96 hrs by photometric method based assay. The class given is functional, organism-based. Conditions: Tulahuen strain C2C4, L6, 96 h.
`CC(=O)Nc1ccc2[nH]c(=O)n(C3CCN(C(=O)c4ccccc4)CC3)c(=O)c2c1` returned an EC50 of 140000 nM.

In turn, `CC(=O)Nc1cnc2[nH]c(=O)n([C@H]3CC[C@H](C(C)C)CC3)c(=O)c2c1` gave an EC50 of 61 nM.

`CC(=O)Nc1ccc2[nH]c(=O)n([C@H]3CC[C@@H](C(C)C)CC3)c(=O)c2c1` had an EC50 of 200 nM.

`CC(=O)Nc1ccc2[nH]c(=O)n(CCC3=CCCCC3)c(=O)c2c1` showed an EC50 of 2100 nM.

In the case of `Nc1ccc2[nH]c(=O)n(CCC3CCCCC3)c(=O)c2c1`, the EC50 worked out at 1900 nM.

In the case of `CC(C)(C)[C@H]1CC[C@@H](n2c(=O)[nH]c3ncc(N)cc3c2=O)CC1`, the EC50 came to 240 nM.

As for `N#CCc1ccc2[nH]c(=O)n(CCC3CCCCC3)c(=O)c2c1`, the EC50 is 2100 nM.

The molecule `CC(=O)Nc1ccc2[nH]c(=O)n(CCCC3CCCCC3)c(=O)c2c1` gave an EC50 of 480 nM.

In turn, `O=c1[nH]c2ccc(-c3ccncc3)cc2c(=O)n1CCC1CCCCC1` yielded an EC50 of 1700 nM.

`CC(=O)Nc1ccc2[nH]c(=O)n(CCc3ccccc3)c(=O)c2c1` yielded an EC50 of 1100 nM.

In turn, `CC(=O)Nc1ccc2[nH]c(=O)n(C(CC3CCCCC3)C(N)=O)c(=O)c2c1` (stereo not drawn) had an EC50 of 170000 nM.

Turning to `O=C(Cn1ccnc1[N+](=O)[O-])NCc1ccccc1` [BENZNIDAZOLE], the midpoint of the response, the EC50, lay at 1940 nM.

Take `CC(=O)Nc1ccc2[nH]c(=O)n([C@H]3CC[C@H](OC(C)(C)C)CC3)c(=O)c2c1`: a half-maximal effect (EC50) was put at 3500 nM.

With `CC(=O)Nc1ccc2[nH]c(=O)n(C3CCC(C)CC3)c(=O)c2c1` (mixture of isomers), the EC50 was 1400 nM.

On to `CC(=O)Nc1ccc2[nH]c(=O)n(CCCc3ccccc3)c(=O)c2c1`, for which the EC50 came to 7500 nM.

As to `CC(C)[C@H]1CC[C@H](n2c(=O)[nH]c3ccc(N)cc3c2=O)CC1`, the 50% effective concentration (EC50) worked out at 27 nM.

As to `CC(=O)Nc1ccc2[nH]c(=O)n([C@H]3CC[C@H](C(F)(F)F)CC3)c(=O)c2c1`, a half-maximal effect (EC50) was put at 350 nM.

In turn, `CC(=O)Nc1cnc2[nH]c(=O)n(CCC3CCCCC3)c(=O)c2c1` had an EC50 of 2300 nM.

`CC(=O)Nc1ccc2[nH]c(=O)n([C@H]3CO[C@H](C(C)(C)C)OC3)c(=O)c2c1` registered an EC50 of 580 nM.

`CC(=O)Nc1ccc2[nH]c(=O)n(C(C)(C)C)c(=O)c2c1`: the midpoint of the response, the EC50, lay at 61000 nM.

`CC(=O)Nc1ccc2[nH]c(=O)n([C@H]3CC[C@@H](NC(=O)OC(C)(C)C)CC3)c(=O)c2c1`: the EC50 was 2600 nM.

Regarding `CC(=O)Nc1ccc2[nH]c(=O)n(Cc3ccccc3)c(=O)c2c1`, the 50% effective concentration (EC50) was 17000 nM.

Consider `CC(=O)Nc1ccc2[nH]c(=O)n([C@H]3CCO[C@@H](C(C)(C)C)C3)c(=O)c2c1` (racemic), for which the EC50 was determined as 2100 nM.

`CC(=O)Nc1ccc2[nH]c(=O)n([C@H]3CC[C@H](C(C)(C)F)CC3)c(=O)c2c1`: the EC50 amounted to 2600 nM.

The subject of another data set is L6. As to the kind of experiment: Cytotoxicity against rat L6 cells incubated for 70 hrs by resazurin dye based assay. The class given is cell-based. Conditions: L6, 70 h. In general terms: The colour change of resazurin is a common sign of viable cells or microbes.
For `CC(=O)Nc1ccc2[nH]c(=O)n(C3CCN(C(=O)c4ccccc4)CC3)c(=O)c2c1`, the response was half-maximal at 135 µM (EC50).

The molecule `CC(=O)Nc1cnc2[nH]c(=O)n([C@H]3CC[C@H](C(C)C)CC3)c(=O)c2c1` came in with an EC50 of 32 µM.

The molecule `CC(=O)Nc1ccc2[nH]c(=O)n([C@H]3CC[C@@H](C(C)C)CC3)c(=O)c2c1` yielded an EC50 of 41 µM.

`CC(=O)Nc1ccc2[nH]c(=O)n(CCC3=CCCCC3)c(=O)c2c1` returned an EC50 of 107 µM.

As to `Nc1ccc2[nH]c(=O)n(CCC3CCCCC3)c(=O)c2c1`, the EC50 came out at 19 µM.

`CC(C)(C)[C@H]1CC[C@@H](n2c(=O)[nH]c3ncc(N)cc3c2=O)CC1` displayed a concentration giving a half-maximal response (EC50) of 44 µM.

With `N#CCc1ccc2[nH]c(=O)n(CCC3CCCCC3)c(=O)c2c1`, the EC50 came out at 70 µM.

`CC(=O)Nc1ccc2[nH]c(=O)n(CCCC3CCCCC3)c(=O)c2c1` showed an EC50 of 87 µM.

The molecule `O=c1[nH]c2ccc(-c3ccncc3)cc2c(=O)n1CCC1CCCCC1` had an EC50 of 14 µM.

For `CC(=O)Nc1ccc2[nH]c(=O)n(CCc3ccccc3)c(=O)c2c1`, the EC50 is 139 µM.

Molecule `CC(=O)Nc1ccc2[nH]c(=O)n(C(CC3CCCCC3)C(N)=O)c(=O)c2c1` (stereo not drawn) gave an EC50 of 222 µM.

For the molecule `CC(=O)Nc1ccc2[nH]c(=O)n([C@H]3CC[C@H](OC(C)(C)C)CC3)c(=O)c2c1`, the EC50 turned out to be 123 µM.

Take `CC(=O)Nc1ccc2[nH]c(=O)n(C3CCC(C)CC3)c(=O)c2c1` (mixture of isomers): it took 54 µM to reach a half-maximal effect (EC50).

`CC(=O)Nc1ccc2[nH]c(=O)n(CCCc3ccccc3)c(=O)c2c1` registered an EC50 of 134 µM.

As to `CC(C)[C@H]1CC[C@H](n2c(=O)[nH]c3ccc(N)cc3c2=O)CC1`, the half-maximal effective concentration (EC50) amounted to 22 µM.

Consider `CC(=O)Nc1ccc2[nH]c(=O)n([C@H]3CC[C@H](C(F)(F)F)CC3)c(=O)c2c1`, for which a half-maximal response (EC50) required 9.5 µM.

With `CC(=O)Nc1cnc2[nH]c(=O)n(CCC3CCCCC3)c(=O)c2c1`, it took 130 µM to reach a half-maximal effect (EC50).

The molecule `CC(=O)Nc1ccc2[nH]c(=O)n([C@H]3CO[C@H](C(C)(C)C)OC3)c(=O)c2c1` gave an EC50 of 27 µM.

As for `CC(=O)Nc1ccc2[nH]c(=O)n(C(C)(C)C)c(=O)c2c1`, the 50% effective concentration (EC50) amounted to 37 µM.

Take `CC(=O)Nc1ccc2[nH]c(=O)n([C@H]3CC[C@@H](NC(=O)OC(C)(C)C)CC3)c(=O)c2c1`: it took 118 µM to reach a half-maximal effect (EC50).

Molecule `CC(=O)Nc1ccc2[nH]c(=O)n(Cc3ccccc3)c(=O)c2c1` had an EC50 of 148 µM.

In turn, `CC(=O)Nc1ccc2[nH]c(=O)n([C@H]3CCO[C@@H](C(C)(C)C)C3)c(=O)c2c1` (racemic) had an EC50 of 125 µM.

On to `CC(=O)Nc1ccc2[nH]c(=O)n([C@H]3CC[C@H](C(C)(C)F)CC3)c(=O)c2c1`, for which it took 17 µM to reach a half-maximal effect (EC50).

Test system in a further data set: not listed separately
As to the kind of experiment: Selectivity ratio, EC50 for cytotoxicity against rat L6 cells to EC50 for antitrypanosomal activity against Trypanosoma cruzi Tulahuen strain C2C4 trypomastigotes infected in rat L6 cells. Format: toxicity, cell-based. Particulars: read-out: Ratio EC50.
As to `CC(=O)Nc1ccc2[nH]c(=O)n(C3CCN(C(=O)c4ccccc4)CC3)c(=O)c2c1`, the selectivity ratio came to 1.

Take `CC(=O)Nc1cnc2[nH]c(=O)n([C@H]3CC[C@H](C(C)C)CC3)c(=O)c2c1`: the selectivity ratio was found to be 520.

Regarding `CC(=O)Nc1ccc2[nH]c(=O)n([C@H]3CC[C@@H](C(C)C)CC3)c(=O)c2c1`, the selectivity ratio came out at 210.

`CC(=O)Nc1ccc2[nH]c(=O)n(CCC3=CCCCC3)c(=O)c2c1`: the selectivity ratio was determined as 51.

For `Nc1ccc2[nH]c(=O)n(CCC3CCCCC3)c(=O)c2c1`, the selectivity ratio was determined as 10.

With `CC(C)(C)[C@H]1CC[C@@H](n2c(=O)[nH]c3ncc(N)cc3c2=O)CC1`, the selectivity ratio worked out at 183.

For the molecule `N#CCc1ccc2[nH]c(=O)n(CCC3CCCCC3)c(=O)c2c1`, the selectivity ratio was 33.

For the molecule `CC(=O)Nc1ccc2[nH]c(=O)n(CCCC3CCCCC3)c(=O)c2c1`, the selectivity ratio was 180.

For `O=c1[nH]c2ccc(-c3ccncc3)cc2c(=O)n1CCC1CCCCC1`, the selectivity ratio stood at 8.

For `CC(=O)Nc1ccc2[nH]c(=O)n(CCc3ccccc3)c(=O)c2c1`, the selectivity ratio turned out to be 130.

Turning to `CC(=O)Nc1ccc2[nH]c(=O)n(C(CC3CCCCC3)C(N)=O)c(=O)c2c1` (stereo not drawn), the selectivity ratio was found to be 1.3.

In the case of `CC(=O)Nc1ccc2[nH]c(=O)n([C@H]3CC[C@H](OC(C)(C)C)CC3)c(=O)c2c1`, the selectivity ratio stood at 35.

In the case of `CC(=O)Nc1ccc2[nH]c(=O)n(C3CCC(C)CC3)c(=O)c2c1` (mixture of isomers), the selectivity ratio stood at 39.

Take `CC(=O)Nc1ccc2[nH]c(=O)n(CCCc3ccccc3)c(=O)c2c1`: the selectivity ratio was found to be 18.

In the case of `CC(C)[C@H]1CC[C@H](n2c(=O)[nH]c3ccc(N)cc3c2=O)CC1`, the selectivity ratio is 810.

Turning to `CC(=O)Nc1ccc2[nH]c(=O)n([C@H]3CC[C@H](C(F)(F)F)CC3)c(=O)c2c1`, the selectivity ratio was 27.

`CC(=O)Nc1cnc2[nH]c(=O)n(CCC3CCCCC3)c(=O)c2c1`: the selectivity ratio came to 57.

`CC(=O)Nc1ccc2[nH]c(=O)n([C@H]3CO[C@H](C(C)(C)C)OC3)c(=O)c2c1`: the selectivity ratio is 47.

With `CC(=O)Nc1ccc2[nH]c(=O)n(C(C)(C)C)c(=O)c2c1`, the selectivity ratio worked out at 0.6.

Regarding `CC(=O)Nc1ccc2[nH]c(=O)n([C@H]3CC[C@@H](NC(=O)OC(C)(C)C)CC3)c(=O)c2c1`, the selectivity ratio amounted to 45.

Consider `CC(=O)Nc1ccc2[nH]c(=O)n(Cc3ccccc3)c(=O)c2c1`, for which the selectivity ratio stood at 9.

In the case of `CC(=O)Nc1ccc2[nH]c(=O)n([C@H]3CCO[C@@H](C(C)(C)C)C3)c(=O)c2c1` (racemic), the selectivity ratio turned out to be 60.

Regarding `CC(=O)Nc1ccc2[nH]c(=O)n([C@H]3CC[C@H](C(C)(C)F)CC3)c(=O)c2c1`, the selectivity ratio is 6.5.

Test system in the next data set: not listed separately
As to the kind of experiment: Kinetic aqueous solubility of compound in DMSO by nephelometric analysis. The class given is physicochemical. Conditions: read-out: Kinetic_solubility.
`CC(=O)Nc1cnc2[nH]c(=O)n(CCC3CCCCC3)c(=O)c2c1`: the solubility kinetic turned out to be 97 µM (≈ 32 µg/mL).

Test system in another data set: not listed separately
As to the kind of experiment: Intrinsic clearance in CD1 mouse liver microsomes at 0.5 uM measured up to 30 mins in presence of NADPH by UPLC-MSMS analysis. Format: ADME, Microsome. Conditions: 0.5 h. For orientation: Microsomes from liver hold many membrane-bound enzymes, among them those of drug oxidation.
Turning to `CC(=O)Nc1cnc2[nH]c(=O)n([C@H]3CC[C@H](C(C)C)CC3)c(=O)c2c1`, the intrinsic clearance stood at 1.4 mL/min/g.

Turning to `CC(=O)Nc1ccc2[nH]c(=O)n([C@H]3CC[C@@H](C(C)C)CC3)c(=O)c2c1`, the intrinsic clearance was determined as 26 mL/min/g.

For the molecule `CC(C)(C)[C@H]1CC[C@@H](n2c(=O)[nH]c3ncc(N)cc3c2=O)CC1`, the intrinsic clearance worked out at 1.6 mL/min/g.

With `CC(=O)Nc1ccc2[nH]c(=O)n([C@H]3CC[C@H](OC(C)(C)C)CC3)c(=O)c2c1`, the intrinsic clearance was below 0.5 mL/min/g.

With `CC(=O)Nc1ccc2[nH]c(=O)n([C@H]3CC[C@H](C(F)(F)F)CC3)c(=O)c2c1`, the intrinsic clearance is below 0.5 mL/min/g.

Regarding `CC(=O)Nc1ccc2[nH]c(=O)n([C@H]3CO[C@H](C(C)(C)C)OC3)c(=O)c2c1`, the intrinsic clearance is below 0.5 mL/min/g.

Turning to `CC(=O)Nc1ccc2[nH]c(=O)n([C@H]3CCO[C@@H](C(C)(C)C)C3)c(=O)c2c1` (racemic), the intrinsic clearance is 16 mL/min/g.
